Data from patent US8673894B2 (Hoffmann-La Roche Inc., priority 2010, dated 2014).
Counter-ions that a name gives are not always drawn.

Experiments:
[1] = system: Aβ40; test: Cellular Aβ-lowering assay; type: cell-based; details: HEK293 cells stably expressing human APP695, Aβ40 in supernatant by ELISA after 18-20 hrs; read-out: Cellular assay Abeta40 IC50
Procedure: Cellular Aβ-Lowering Assay:
Human HEK293 cells which are stably transfected with a vector expressing a cDNA of the human APP wt gene (APP695) were used to assess the potency of the compounds in a cellular assay. The cells were seeded in 96-well microtiter plates in cell culture medium (Iscove, plus 10% (v/v) fetal bovine serum, glutamine, penicillin/streptomycin) to about 80% confluence and the compounds were added at a 10× concentration in 1/10 volume of medium without FCS containing 8% DMSO (final concentration of DMSO was kept at 0.8% v/v). After 18-20 hrs incubation at 37° C. and 5% CO2 in a humidified incubator the culture supernatant was harvested for the determination of Aβ40 concentrations. 96well ELISA plates (e.g., Nunc MaxiSorb) were coated with monoclonal antibody which specifically recognize the C-terminal end of Aβ40 (Brockhaus et al., NeuroReport 9, 1481-1486; 1998). After blocking of non-specific binding sites with e.g. 1% BSA and washing, the culture supernatants were added in suitable dilutions together with a horseradish peroxidase-coupled Aβ detection antibody (e.g., antibody 4G8, Senetek, Maryland Heights, Mo.) and incubated for 5 to 7 hrs. Subsequently the wells of the microtiter plate were washed extensively with Tris-buffered saline containing 0.05% Tween 20 and the assay was developed with tetramethylbenzidine/H2O2 in citric acid buffer. After stopping the reaction with one volume 1 N H2SO4 the reaction was measured in an ELISA reader at 450 nm wavelength. The concentrations of Aβ in the culture supernatants were calculated from a standard curve obtained with known amounts of pure Aβ peptide.

[2] = target: T1, endogenous cellular BACE2 (Rattus norvegicus, UniProt Q6IE75); test: Assay for BACE inhibition by measuring cellular TMEM27 cleavage; type: cell-based; details: INS-TMEM27 (INS1e-derived) cells, shed human TMEM27 in supernatant by ELISA
T1 construct: endogenous cellular BACE2 in the Ins1e rat cell line; endogenous in cells; host or cells: INS-TMEM27 (INS1e-derived rat insulinoma cell line with doxycycline-inducible full-length human TMEM27)
T1 sequence (Q6IE75 63-514): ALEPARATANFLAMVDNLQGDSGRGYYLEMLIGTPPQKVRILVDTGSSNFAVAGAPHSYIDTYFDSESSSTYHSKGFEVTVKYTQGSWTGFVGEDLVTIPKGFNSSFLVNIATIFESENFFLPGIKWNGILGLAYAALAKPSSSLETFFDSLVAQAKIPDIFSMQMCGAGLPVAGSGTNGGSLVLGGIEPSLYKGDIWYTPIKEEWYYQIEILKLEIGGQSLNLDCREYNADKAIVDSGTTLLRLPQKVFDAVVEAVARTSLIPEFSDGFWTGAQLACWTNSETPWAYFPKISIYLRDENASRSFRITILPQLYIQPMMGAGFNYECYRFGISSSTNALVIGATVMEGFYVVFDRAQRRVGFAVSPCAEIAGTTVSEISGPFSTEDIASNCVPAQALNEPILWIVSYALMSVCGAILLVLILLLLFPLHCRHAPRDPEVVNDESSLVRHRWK
From the text: Assay for BACE Inhibition by Measuring Cellular TMEM27 Cleavage:
The assay uses the principle of inhibition of human TMEM27 cleavage by endogenous cellular BACE2 in the Ins1e rat cell line and shedding from the cell surface into the culture medium, followed by detection in an ELISA assay. Inhibition of BACE2 prevents the cleavage and shedding in a dose-dependent manner.
The stable cell line “INS-TMEM27” represents an INS1e-derived cell line with inducible expression (using the TetOn system) of full-length hTMEM27 in a doxycycline-dependent manner. The cells are cultured throughout the experiment in RPMI1640+ Glutamax (Invitrogen) Penicillin/Streptomycin, 10% Fetal bovine serum, […], […], 100 micrograms/ml G418 and 100 microgram/ml hygromycin and are grown inadherent culture at 37° C. in a standard CO2 cell culture incubator.
INS-TMEM27 cells are seeded in 96-well plates. After 2 days in culture, BACE2 inhibitor is added in a range of concentrations as required by the assay and after a further two hours, doxycycline is added to a final concentration of 500 ng/ml. The cells are incubated for a further 46 hours and the supernatant harvested for detection of shed TMEM27.
An ELISA assay (using a pair of mouse anti-human-TMEM27 antibodies, raised against the extracellular domain of TMEM27) is used for detection of TMEM27 in the culture medium. An EC50 for BACE2 inhibition is calculated using the ELISA readout for each inhibitor concentration with standard curve-fitting software such as XLFit for the Excel spreadsheet program.

IC50 [1] [nM] | IC50 [2] [nM] | SMILES
2200 | > 10000 | NC1=N[C@@]2(c3cc(NC(=O)c4ccc(OCC(F)(F)F)cn4)ccc3F)C[C@H]2COC1 (racemic) [Example 2, 5-(2,2,2-Trifluoro-ethoxy)-pyridine-2-carboxylic acid [3-((1SR,7RS)-3-amino-5-oxa-2-aza-bicyclo[5.1.0]oct-2-en-1-yl)-4-fluoro-phenyl]-amide]
34 | 245 | NC1=N[C@@]2(c3cccc(NC(=O)c4ccc(Cl)cn4)c3)C[C@H]2COC1 (racemic) [Example 3, 5-Chloro-pyridine-2-carboxylic acid [3-((1SR,7RS)-3-amino-5-oxa-2-aza-bicyclo[5.1.0]oct-2-en-1-yl)-phenyl]-amide]
630 | 8900 | NC1=N[C@@]2(c3cccc(NC(=O)c4ccc(OCC(F)(F)F)cn4)c3)C[C@H]2COC1 (racemic) [Example 4, 5-(2,2,2-Trifluoro-ethoxy)-pyridine-2-carboxylic acid [3-((1SR,7RS)-3-amino-5-oxa-2-aza-bicyclo[5.1.0]oct-2-en-1-yl)-phenyl]-amide]
100 | 8590 | NC1=N[C@@]2(c3cccc(NC(=O)c4ncc(C(F)(F)F)cc4Cl)c3)C[C@H]2COC1 (stereo in doubt) [Example 51, 3-Chloro-5-trifluoromethyl-pyridine-2-carboxylic acid [3-((R)-3-amino-5-oxa-2-aza-bicyclo[5.1.0]oct-2-en-1-yl)-phenyl]-amide; salt with trifluoroacetic acid]
0.9 | 0.885 | C[C@@]1(c2cc(NC(=O)c3ccc(Cl)cn3)ccc2F)CCOCC(N)=N1 [Example 5, 5-Chloro-pyridine-2-carboxylic acid [3-((S)-3-amino-5-methyl-2,5,6,7-tetrahydro-[1,4]oxazepin-5-yl)-4-fluoro-phenyl]-amide formate]
36 | 3.6 | C[C@@]1(c2cc(NC(=O)c3ncccc3F)ccc2F)CCOCC(N)=N1 [Example 6, 3-Fluoro-pyridine-2-carboxylic acid [3-((S)-3-amino-5-methyl-2,5,6,7-tetrahydro-[1,4]oxazepin-5-yl)-4-fluoro-phenyl]-amide formate]
16 | 1.45 | C[C@@]1(c2cc(NC(=O)c3ccccn3)ccc2F)CCOCC(N)=N1 [Example 7, Pyridine-2-carboxylic acid [3-((S)-3-amino-5-methyl-2,5,6,7-tetrahydro-[1,4]oxazepin-5-yl)-4-fluoro-phenyl]-amide]
2.5 | 1.8 | C[C@@]1(c2cc(NC(=O)c3ncc(Cl)cc3Cl)ccc2F)CCOCC(N)=N1 [Example 8, 3,5-Dichloro-pyridine-2-carboxylic acid [3-((S)-3-amino-5-methyl-2,5,6,7-tetrahydro-[1,4]oxazepin-5-yl)-4-fluoro-phenyl]-amide]
1.6 | 10 | C[C@@]1(c2cc(NC(=O)c3ccc(F)cn3)ccc2F)CCOCC(N)=N1 [Example 9]
1.1 | 1.6 | CC1(C)C[C@@](C)(c2cc(NC(=O)c3ccc(Cl)cn3)ccc2F)N=C(N)CO1 [Example 10, 5-Chloro-pyridine-2-carboxylic acid [3-((S)-3-amino-5,7,7-trimethyl-2,5,6,7-tetrahydro-[1,4]oxazepin-5-yl)-4-fluoro-phenyl]-amide]
2.1 | 2 | CC1(C)C[C@@](C)(c2cc(NC(=O)c3ccc(OC(F)F)cn3)ccc2F)N=C(N)CO1 [Example 11, 5-Difluoromethoxy-pyridine-2-carboxylic acid [3-((S)-3-amino-5,7,7-trimethyl-2,5,6,7-tetrahydro-[1,4]oxazepin-5-yl)-4-fluoro-phenyl]-amide]
9 | 120 | C[C@@]1(c2cc(NC(=O)c3ccc(OCC(F)(F)F)cn3)ccc2F)CCOCC(N)=N1 [Example 12, 5-(2,2,2-Trifluoro-ethoxy)-pyridine-2-carboxylic acid [3-((S)-3-amino-5-methyl-2,5,6,7-tetrahydro-[1,4]oxazepin-5-yl)-4-fluoro-phenyl]-amide]
250 | 44 | CC[C@@]1(c2cc(NC(=O)c3ccc(F)cn3)ccc2F)CCOCC(N)=N1 [Example 13, 5-Fluoro-pyridine-2-carboxylic acid [3-((S)-3-amino-5-ethyl-2,5,6,7-tetrahydro-[1,4]oxazepin-5-yl)-4-fluoro-phenyl]-amide]
93 | 69.5 | CC[C@@]1(c2cc(NC(=O)c3ccc(Cl)cn3)ccc2F)CCOCC(N)=N1 [Example 14, 5-Chloro-pyridine-2-carboxylic acid [3-((S)-3-amino-5-ethyl-2,5,6,7-tetrahydro-[1,4]oxazepin-5-yl)-4-fluoro-phenyl]-amide]
880 | 38 | CC[C@@]1(c2cc(NC(=O)c3ncc(Cl)cc3Cl)ccc2F)CCOCC(N)=N1 [Example 15, 3,5-Dichloro-pyridine-2-carboxylic acid [3-((S)-3-amino-5-ethyl-2,5,6,7-tetrahydro-[1,4]oxazepin-5-yl)-4-fluoro-phenyl]-amide]
14 | 13.5 | C[C@@]1(c2cc(NC(=O)c3ncc(C(F)(F)F)cc3Cl)ccc2F)CCOCC(N)=N1 [Example 16, 3-Chloro-5-trifluoromethyl-pyridine-2-carboxylic acid [3-((S)-3-amino-5-methyl-2,5,6,7-tetrahydro-[1,4]oxazepin-5-yl)-4-fluoro-phenyl]-amide]
920 | 400 | C[C@@]1(c2cc(NC(=O)C3(C(F)(F)F)CC3)ccc2F)CCOCC(N)=N1 [Example 17, 1-Trifluoromethyl-cyclopropanecarboxylic acid [3-((S)-3-amino-5-methyl-2,5,6,7-tetrahydro-[1,4]oxazepin-5-yl)-4-fluoro-phenyl]-amide]
22 | 120 | CC1(C)C[C@@](C)(c2cc(NC(=O)c3ccc(OCC(F)(F)F)cn3)ccc2F)N=C(N)CO1 [Example 18, 5-(2,2,2-Trifluoro-ethoxy)-pyridine-2-carboxylic acid [3-((S)-3-amino-5,7,7-trimethyl-2,5,6,7-tetrahydro-[1,4]oxazepin-5-yl)-4-fluoro-phenyl]-amide]
440 | 56 | CC1(C)C[C@@](C)(c2cc(NC(=O)C3CC3(F)F)ccc2F)N=C(N)CO1 (stereo partly drawn) [Example 19, 2,2-Difluoro-cyclopropanecarboxylic acid [3-((S)-3-amino-5,7,7-trimethyl-2,5,6,7-tetrahydro-[1,4]oxazepin-5-yl)-4-fluoro-phenyl]-amide]
1.3 | – | C[C@]1(c2cc(NC(=O)c3ccc(Cl)cn3)ccc2F)N=C(N)COCC1(F)F [Example 26, (R)-N-(3-(3-amino-6,6-difluoro-5-methyl-2,5,6,7-tetrahydro-1,4-oxazepin-5-yl)-4-fluorophenyl)-5-chloropicolinamide]
5070 | – | C[C@@]1(c2cc(NC(=O)c3ccc(Cl)cn3)ccc2F)C[C@@H](c2ccccc2)OCC(N)=N1 [Example 69]
